# Values quoted from earlier work in PMC11604869, “Stereoselective block of the hERG potassium channel by the Class Ia antiarrhythmic drug disopyramide” (Cellular and Molecular Life Sciences: CMLS, 2024).
# How the values were obtained:
# [1] = design: method as in PMID 6740739
# rat ventricular ITO = system: rat ventricular ITO; design: method as in PMID 11327018; details: 100 μM
# rabbit ventricular ITO = system: rabbit ventricular ITO; design: method as in PMID 9550298; details: 30 μM
# [2] = system: rate corrected QT interval; design: method as in PMID 2439842; details: for effect on rate corrected QT interval: acute infusion, healthy human volunteers
# [3] = plasma
# hERG = system: hERG; design: method as in PMID 12466236
structure (smiles),measurement,setting,value
"CC(C)N(CCC(C(N)=O)(c1ccccc1)c1ccccn1)C(C)C (racemic) [racemic disopyramide, 4-(diisopropylamino)−2-phenyl-2-(pyridin-2-yl) butanamide]",therapeutic total plasma levels,[1],6 to 8 µM
same,effect on rat ventricular ITO,rat ventricular ITO,no effect
same,reduction of rabbit ventricular ITO amplitude,rabbit ventricular ITO,~ 33%
CC(C)N(CC[C@@](C(N)=O)(c1ccccc1)c1ccccn1)C(C)C [R(−) disopyramide],effect on rate corrected QT interval,[2],not
same,unbound fractions,[3],0.338
CC(C)N(CC[C@](C(N)=O)(c1ccccc1)c1ccccn1)C(C)C [S(+) disopyramide],effect on rate corrected QT interval,[2],prolongation of the rate corrected QT interval
same,negative inotropic effect in humans,[2]; compared with R(−) disopyramide,smaller negative inotropic effect
same,unbound fractions,[3],0.208
CCCCN1CCCC[C@H]1C(=O)Nc1c(C)cccc1C [levobupivacaine],potency of IhERG inhibition relative to dextrobupivacaine,hERG,twofold
